Experimental data published in publication PMC9825645 (Traffic (Copenhagen, Denmark), 2022).

Biological target: T1, AMPH-1 (Amphiphysin 1) (Caenorhabditis elegans, UniProt Q21004)
T1 sequence (Q21004 1-461): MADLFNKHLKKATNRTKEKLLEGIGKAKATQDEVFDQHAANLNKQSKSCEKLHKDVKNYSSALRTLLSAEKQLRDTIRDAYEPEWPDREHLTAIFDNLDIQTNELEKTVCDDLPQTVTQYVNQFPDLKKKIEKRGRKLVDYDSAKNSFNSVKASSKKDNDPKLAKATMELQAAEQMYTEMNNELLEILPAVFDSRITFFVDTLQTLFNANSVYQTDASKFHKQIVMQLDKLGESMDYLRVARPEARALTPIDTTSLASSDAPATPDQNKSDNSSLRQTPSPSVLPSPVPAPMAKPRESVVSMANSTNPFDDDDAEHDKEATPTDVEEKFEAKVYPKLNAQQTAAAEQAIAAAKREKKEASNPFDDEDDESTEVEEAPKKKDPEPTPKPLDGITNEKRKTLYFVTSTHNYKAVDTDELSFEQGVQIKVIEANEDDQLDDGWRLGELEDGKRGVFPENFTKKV
Test: membrane fission of PS liposomes by burst analysis spectroscopy
Format: biochemical
Conditions: 0.5 mM GDP, 1 μM AMPH-1, 30 min; stimulates fission

`Nc1nc2c(ncn2[C@@H]2O[C@H](COP(=O)(O)OP(=O)(O)O)[C@@H](O)[C@H]2O)c(=O)[nH]1` [GDP] was tested, and the “membrane fission of PS liposomes by burst analysis spectroscopy” value was “GDP stimulates fission to almost the same extent as seen in the presence of GTP”.
